Patent US20210060033A1, “ORALLY ADMINISTERED COMBINATIONS OF BETA-LACTAM ANTIBIOTICS AND AVIBACTAM DERIVATIVES FOR TREATING BACTERIAL INFECTIONS” (priority 2019, published 2021)
Counter-ions that a name gives are not always drawn.

Experiments:
[1] = tested on: pooled Enterobacteriaceae isolates; assay: Pharmacokinetic-pharmacodynamic analyses (Hill-type models) of the 400 mg ceftibuten dose-ranging studies; assay type: cell-based; conditions: 400 mg of ceftibuten, 24 hours
Procedure: Data from the avibactam dose-ranging studies, in combination with 400 mg q8h of ceftibuten, were evaluated using Hill models and non-linear least squares regression. All data was weighted using the inverse of the estimated measurement variance. […] The relationships between change in log10 CFU/mL and percent time above avibactam concentration thresholds (Ct) ranging from 0.125 mg/L to 2 mg/L were also evaluated.

[2] = human; cited from earlier work
[3] = Sprague-Dawley rats; cited from earlier work
[4] = tested on: E. coli ATCC 25922; assay: One-compartment in vitro infection (chemostat) model, E. coli ATCC 25922; assay type: cell-based, Escherichia coli
[5] = tested on: K. pneumoniae 19701; assay: One-compartment in vitro infection (chemostat) model, K. pneumoniae 19701; assay type: cell-based, Klebsiella pneumoniae; conditions: for Average Log10 CFU/mL (+/− Range of Data), 5 × Ceftibuten + Avibactam at 4 mg/L MIC: Ceftibuten 400 mg q8h
[6] = tested on: E. coli 136-4643; assay: One-compartment in vitro infection (chemostat) model, E. coli 136-4643; assay type: cell-based, Escherichia coli; conditions: E. coli 4643; for Average Log10 CFU/mL (+/− Range of Data), 5 × Ceftibuten + Avibactam at 4 mg/L MIC: Ceftibuten 400 mg q8h
[7] = tested on: ESBL-positive isolates (n = 28); assay type: cell-based, Enterobacteriaceae; conditions: ESBL n = 28; avibactam or clavulanic acid fixed at 4 μg/mL in combinations
[8] = tested on: OXA-positive isolates (n = 22); assay type: cell-based, Enterobacteriaceae; conditions: OXA n = 22; avibactam or clavulanic acid fixed at 4 μg/mL in combinations
[9] = tested on: KPC-positive isolates (n = 23); assay type: cell-based, Enterobacteriaceae; conditions: KPC n = 23; avibactam or clavulanic acid fixed at 4 μg/mL in combinations
[10] = tested on: pAmpC (PlasAmpC) isolates (n = 20); assay type: cell-based, Enterobacteriaceae; conditions: pAmpC n = 20; avibactam or clavulanic acid fixed at 4 μg/mL in combinations
[11] = tested on: ESBL-, KPC-, and OXA-positive isolates; assay type: cell-based, Enterobacteriaceae; conditions: avibactam 4 μg/mL
[12] = MIC determined using 4 mg/L of avibactam
[13] = MIC determined using 8 mg/L of avibactam
[14] = MIC determined using a 1:1 ratio of ceftibuten:avibactam

With `NC(=O)[C@@H]1CC[C@@H]2CN1C(=O)N2OS(=O)(=O)O` [avibactam, [2S,5R]-2-carbamoyl-7-oxo-1,6-diazabicyclo[3.2.1]octan-6-yl hydrogen sulfate] the “Avibactam free-drug plasma % T > Concentration threshold value, target 1-log” value ([1]; Ct 0.5 mg/L of avibactam) was 97.6%, the “Avibactam free-drug plasma % T > Concentration threshold value, target 2-log” value ([1]; Ct 0.5 mg/L of avibactam) was 98.2% and the “Avibactam free-drug plasma % T > Concentration threshold value, target Stasis” value ([1]; Ct 0.5 mg/L of avibactam) was 96.9%. The “Avibactam free-drug plasma % T > Concentration threshold value, target 1-log” value ([1]; Ct 1 mg/L of avibactam) was 85.2%, the “Avibactam free-drug plasma % T > Concentration threshold value, target 2-log” value ([1]; Ct 1 mg/L of avibactam) was 93.6% and the “Avibactam free-drug plasma % T > Concentration threshold value, target Stasis” value ([1]; Ct 1 mg/L of avibactam) was 76.0%. The “Avibactam free-drug plasma % T > MIC value, target 1-log” value [1, 12] was 58.0%, the “Avibactam free-drug plasma % T > MIC value, target 2-log” value [1, 12] was 66.3% and the “Avibactam free-drug plasma % T > MIC value, target Stasis” value [1, 12] was 53.2%. The “Avibactam free-drug plasma AUC:MIC value, target 1-log” value [1, 12] was 30.8, the “Avibactam free-drug plasma AUC:MIC value, target 2-log” value [1, 12] was 34.2 and the “Avibactam free-drug plasma AUC:MIC value, target Stasis” value [1, 12] was 28.7. The “Avibactam free-drug plasma % T > MIC value, target 1-log” value [1, 13] was 79.4%, the “Avibactam free-drug plasma % T > MIC value, target 2-log” value [1, 13] was 80.4% and the “Avibactam free-drug plasma % T > MIC value, target Stasis” value [1, 13] was 78.7%. For the same compound, the “Avibactam free-drug plasma AUC:MIC value, target 1-log” value [1, 13] was 67.0, the “Avibactam free-drug plasma AUC:MIC value, target 2-log” value [1, 13] was 128 and the “Avibactam free-drug plasma AUC:MIC value, target Stasis” value [1, 13] was 38.0. For the same compound, the “Avibactam free-drug plasma % T > MIC value, target 1-log” value [1, 14] was 11.1%, the “Avibactam free-drug plasma % T > MIC value, target 2-log” value [1, 14] was 22.7% and the “Avibactam free-drug plasma % T > MIC value, target Stasis” value [1, 14] was 6.8%. For the same compound, the “Avibactam free-drug plasma AUC:MIC value, target 1-log” value [1, 14] was 15.4, the “Avibactam free-drug plasma AUC:MIC value, target 2-log” value [1, 14] was 17.1 and the “Avibactam free-drug plasma AUC:MIC value, target Stasis” value [1, 14] was 14.4. For the same compound, the oral bioavailability [2] was “about 6 % F” and the “avibactam oral bioavailability (% F)” value [3] was 1.2 % F.
For `Nc1nc(/C(=C/CC(=O)O)C(=O)N[C@@H]2C(=O)N3C(C(=O)O)=CCS[C@H]23)cs1` [ceftibuten, (6R,7R)-7-((Z)-2-(2-amino-4-thiazolyl)-4-carboxycrotonamido)-8-oxo-5-thia-1-azabicyclo(4.2.0)oct-2-ene-2-carboxylic acid], the “Reduction (bacterial burden)” value ([4]; Ceftibuten 267 mg TID, Avibactam 0 mg TID) was 1-log, the “ceftibuten % T>MIC required to achieve net bacterial stasis” value ([4]; administered every 8 hours) was “approximately 45%” and the “bacterial burden response at 24 hours” value ([4]; ceftibuten 3.75 mg to 75 mg q8h) was “net bacterial stasis”. For the same compound, the “bacterial burden response at 24 hours” value ([4]; ceftibuten 12.5 mg q8h) was “treatment failure”, the “bacterial burden response at 24 hours” value ([4]; ceftibuten 100 mg and 267 mg q8h) was “reductions in bacterial burden” and the “Average Log10 CFU/mL (+/− Range of Data), 5 × Ceftibuten + Avibactam at 4 mg/L MIC” value (shortened to “Average Log10 CFU/mL (+/− Range of Data)”) ([5]; 0 h) was 0 (0) Log10 CFU/mL. For the same compound, the “Average Log10 CFU/mL (+/− Range of Data)” value ([5]; 24 h) was 1.67 (1.17) Log10 CFU/mL, the “bacterial burden response over 24 hours” value ([5]; ceftibuten 200 mg q8h monotherapy) was “no activity” and the “bacterial burden response over 24 hours” value ([5]; ceftibuten 400 mg q8h monotherapy) was “did not reduce the bacterial burden”. For the same compound, the “Average Log10 CFU/mL (+/− Range of Data)” value ([6]; 0 h) was 0 (0) Log10 CFU/mL, the “Average Log10 CFU/mL (+/− Range of Data)” value ([6]; 24 h) was 0 (0) Log10 CFU/mL and the “bacterial burden response over 24 hours” value ([6]; ceftibuten 400 mg q8h monotherapy, first 4 hours, regrowth matching control by 12 hours) was “slight initial reduction in bacterial burden”. For the same compound, the “Estimated MIC90” value [7] was greater than 32 µg/mL, the “Estimated MIC90” value [8] was greater than 32 µg/mL and the “Estimated MIC90” value [9] was greater than 32 µg/mL. For the same compound, the “Estimated MIC90” value [10] was greater than 32 µg/mL and the “reduction of MIC90 values by addition of avibactam” value [11] was “at least five doubling dilutions”.
